Where a SMILES comes first, the peptide text is derived from it. [ ]: non-standard residue; d: D form. The star is where a group is joined. ξ: configuration not given here. NMeW = CN[C@@H](Cc1c[nH]c2ccccc12)C(=O)O; Benzoyl(3,5-F2) = O=C(c1cc(F)cc(F)c1)*; NMeIle(3ξ) = CCC(C)[C@H](NC)C(=O)O; NMeQ = CN[C@@H](CCC(N)=O)C(=O)O; NMeL = CN[C@@H](CC(C)C)C(=O)O; Dab = NCC[C@H](N)C(=O)O; Butyryl = CCCC(=O)*; NHOH = ON*
Key:
Format in all cases: biochemical
[1] = target: MMP-2 (Homo sapiens (Human), UniProt P08253); assay: MMP-2 inhibition assay (fluorimetric, DQ gelatin substrate); conditions: recombinant MMP-2 (CHO cells) 85 ng/mL, DQ gelatin 50 μg/mL, 2 hours at room temperature, pH 7.6
Method: (§1) All the experiments were done in 1× reaction buffer, which was obtained from a 10× reaction buffer solution. The content of the 10× reaction buffer was: 50 mL of 0.5 M Tris-HCl, 1.5 M NaCl, 50 mM CaCl2 and 2 mM sodium azide at pH 7.6. To obtain the 1× reaction buffer 4 mL of the 10× reaction buffer were diluted in 36 mL of H2O.
Recombinant MMP-2 expressed in Chinese hamster ovary (CHO) cells was obtained from Merck-Millipore (catalog number PF023-5UG). DQ gelatin from pig skin fluorescein conjugated (MMP-2 substrate) was obtained from Life Technologies (catalog number E12055).
Preparation of the MMP-2 for the activity assay: MMP-2 was provided as a stock solution (0.1 mg/mL). The enzyme was diluted in 1× reaction buffer to a final concentration of 5 μg/mL.
(§2) Preparation of the DQ gelatin (substrate) solution for the activity assay: the solid form of the substrate was dissolved in water in order to obtain a stock solution of 1 mg/mL.
(§3) Procedure: The enzymatic assays were performed in 96-well microtiter plate, which allowed simultaneous monitoring of multiple reactions. For each reaction, 86.3 μL of 1× reaction buffer (pH 7.6), 1.7 μL of MMP-2 (final concentration 85 ng/mL) and 2 μL of the corresponding new compound were added to each well. A stock solution of new compound was prepared in DMSO (100 mM), and dilutions were prepared from this stock solution with DMSO. Finally, to the mixture contained in each well 10 μL of the substrate were added (final concentration 50 μg/mL). The reaction was incubated for 2 hours at room temperature in an orbital shaker (100 rpm).
(§4) The inhibitory activity of the new compound was measured fluorimetrically. The excitation and emission wavelengths were 483 and 525 nm, respectively.
(§5) Inhibitory activity at several concentration points (ranging from 100 pM to 200 μM MMP) were measured for each compound. The inhibitory activity on MMP-2 and MMP-9 was calculated according to eq 1. For each new compound, the fluorescence in the presence (a) and in the absence (b) of the corresponding MMP was measured. The maximum fluorescence (0% inhibitory activity) was obtained from a sample of the corresponding MMP in the absence of inhibitory compounds. To estimate the inhibitory potency of the novel compounds, activities were plotted against the log concentration of the compound, adjusting to a sigmoid curve using GraphPad Prism software, and the IC50 value, defined as the concentration of compound required to inhibit 50% of the corresponding MMP activity, was determined from resulting curve.
(§6) a corresponds to fluorescence intensity in the presence of substrate+test compound+MMP
(§7) b corresponds to the fluorescence intensity in the presence of substrate+tested compound
(§8) c corresponds to the fluorescence intensity in the presence of substrate+MMP
(§9) d corresponds to the fluorescence intensity of the presence of substrate

[2] = target: MMP-9; assay: MMP-9 inhibition assay (fluorimetric, DQ gelatin substrate); conditions: recombinant MMP-9 (Merck-Millipore for examples 1 to 9 and comparative examples; Enzo for examples 10 to 16), DQ gelatin 50 μg/mL, 4 hours at room temperature, pH 7.6
Method: as §1
(§10) Recombinant MMP-9 expressed was obtained from Merck-Millipore (catalog number PF140-5UG, used in examples 1 to 9 and comparative examples) and Enzo (catalog number-SE360-0010, used in examples 10 to 16). DQ gelatin from pig skin fluorescein conjugated (MMP-9 substrate) was obtained from Life Technologies (catalog number E12055).
(§11) Preparation of the MMP-9 for the activity assay: MMP-9 was provided as a stock solution (0.1 mg/mL). The enzyme was diluted in 1× reaction buffer to a final concentration of 5 μg/mL.
as §2
as §3, with “reaction, 84.6” for “reaction, 86.3”, “7.6), […]” for “7.6), 1.7”, “of MMP-9” for “of MMP-2”, “for 4” for “for 2”
as §4, §5, §6, §7, §8, §9

[3] = target: MMP-7 (Homo sapiens (Human), UniProt P09237); assay: MMP-7 inhibition assay (fluorogenic peptide substrate); conditions: recombinant MMP-7 8.3 nM, Mca-PLGL-Dpa-AR-NH2 10 μM, 4 hours at room temperature; tested at 1, 10, 100 and 200 μM
Method: as §1
Recombinant MMP-7 expressed in E. Coli was obtained from Merck-Millipore (catalog number 44270). Mca-PLGL-Dpa-AR-NH2 (fluorogenic peptide substrate) was obtained from R&D Systems (catalog number ES001).
Preparation of the MMP-7 for the activity assay: MMP-7 was provided as a stock solution (2.1 mg/mL). The enzyme was diluted in water to a final concentration of 0.005 mg/mL.
MMP-7 peptide substrate was provided as a solid (1 mg). A 4 mM stock solution of the substrate in DMSO was obtained by adding 214.7 μL of DMSO. After which, a 100 μM solution of substrate was prepared in 1× reaction buffer.
Procedure: The enzymatic assays were performed in 96-well microtiter plate, which allowed simultaneous monitoring of multiple reactions. For each reaction, 84.6 μL of 1× reaction buffer (pH 7.6), 3.4 μL of MMP-7 (final concentration 8.3 nM) and 2 μL of the corresponding new compound were added to each well. A stock solution of new compound was prepared in DMSO (100 mM), and dilutions were prepared from this stock solution with DMSO. Finally, to the mixture contained in each well 10 μL of the substrate were added (final concentration 10 μM). The reaction was incubated for 4 hours at room temperature in an orbital shaker (90 rpm).
The inhibitory activity of the new compound was measured fluorimetrically. The excitation and emission wavelengths were 320 and 405 nm, respectively.
Inhibitory activity at several concentration points (1, 10, 100 and 200 μM) were measured for each compound. The inhibitory activity on MMP-1, MMP-3 and MMP-7 was calculated according to eq 1 and The IC50 value was calculated as explained above for MMP-2 and MMP-9.

[4] = target: MMP-9 (Homo sapiens, UniProt P14780); assay: MMP-9 inhibition assay (fluorimetric, DQ gelatin substrate); conditions: recombinant MMP-9 (Merck-Millipore for examples 1 to 9 and comparative examples; Enzo for examples 10 to 16), DQ gelatin 50 μg/mL, 4 hours at room temperature, pH 7.6
Method: as §1, §10, §11, §2
as §3, with “reaction, 84.6” for “reaction, 86.3”, “7.6), […]” for “7.6), 1.7”, “of MMP-9” for “of MMP-2”, “for 4” for “for 2”
as §4, §5, §6, §7, §8, §9

Sequence of MMP-2 (P08253 110-660): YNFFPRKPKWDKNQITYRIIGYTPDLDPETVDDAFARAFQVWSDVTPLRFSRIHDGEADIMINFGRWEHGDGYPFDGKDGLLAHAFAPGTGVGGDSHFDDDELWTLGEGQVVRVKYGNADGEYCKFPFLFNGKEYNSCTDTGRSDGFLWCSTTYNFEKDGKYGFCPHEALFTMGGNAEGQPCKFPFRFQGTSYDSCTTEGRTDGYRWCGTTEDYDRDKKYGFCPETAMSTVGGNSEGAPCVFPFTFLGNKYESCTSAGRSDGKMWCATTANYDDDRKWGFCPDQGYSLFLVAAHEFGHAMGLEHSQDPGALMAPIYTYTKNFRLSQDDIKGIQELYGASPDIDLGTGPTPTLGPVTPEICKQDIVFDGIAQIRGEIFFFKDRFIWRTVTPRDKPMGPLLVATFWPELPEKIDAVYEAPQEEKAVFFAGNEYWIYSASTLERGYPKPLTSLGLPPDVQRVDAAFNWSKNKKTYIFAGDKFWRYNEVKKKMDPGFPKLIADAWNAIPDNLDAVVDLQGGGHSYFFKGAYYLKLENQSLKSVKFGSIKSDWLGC
Sequence of MMP-9 (Homo sapiens, UniProt P14780) (P14780 107-707 limits assumed): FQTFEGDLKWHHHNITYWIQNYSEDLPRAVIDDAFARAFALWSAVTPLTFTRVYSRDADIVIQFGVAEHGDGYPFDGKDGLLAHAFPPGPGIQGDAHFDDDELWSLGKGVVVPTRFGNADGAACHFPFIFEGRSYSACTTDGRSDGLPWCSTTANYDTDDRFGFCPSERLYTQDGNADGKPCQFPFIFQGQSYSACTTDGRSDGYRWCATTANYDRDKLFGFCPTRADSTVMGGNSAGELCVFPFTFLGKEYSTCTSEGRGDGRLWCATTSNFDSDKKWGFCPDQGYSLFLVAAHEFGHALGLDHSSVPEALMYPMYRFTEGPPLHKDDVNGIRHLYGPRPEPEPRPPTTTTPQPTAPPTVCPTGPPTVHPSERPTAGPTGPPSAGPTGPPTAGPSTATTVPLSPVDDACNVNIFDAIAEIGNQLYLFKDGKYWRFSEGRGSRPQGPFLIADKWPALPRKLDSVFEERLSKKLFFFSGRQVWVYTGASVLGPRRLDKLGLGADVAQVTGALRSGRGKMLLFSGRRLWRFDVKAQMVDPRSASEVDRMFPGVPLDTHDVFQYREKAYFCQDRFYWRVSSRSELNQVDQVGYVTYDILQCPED
Sequence of MMP-9 (P14780 107-707 limits assumed): as above
Sequence of MMP-7 (P09237 95-267): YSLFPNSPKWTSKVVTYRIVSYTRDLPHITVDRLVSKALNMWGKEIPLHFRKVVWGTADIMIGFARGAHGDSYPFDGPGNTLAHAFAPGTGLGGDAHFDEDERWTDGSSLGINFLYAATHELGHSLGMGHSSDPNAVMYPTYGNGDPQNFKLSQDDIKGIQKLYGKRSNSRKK

| Compound | IC50 [1] | IC50 [2] | IC50 [3] | IC50 [4] |
| --- | --- | --- | --- | --- |
| CCC(C)[C@@H](C(=O)N[C@@H](CCNC(=O)c1ccc(F)cc1)C(=O)NO)N(C)C(=O)[C@@H]1CCCN1C(C)=O (stereo partly drawn) [Example 1, (2S)-1-acetyl-N-[(1S)-1-[[(1S)-3-[(4-fluorobenzoyl)amino]-1-(hydroxycarbamoyl)propyl]carbamoyl]-2-methyl-butyl]-N-methyl-pyrrolidine-2-carboxamide] | 0.202 µM | 1.26 µM | 23 µM | – |
| CCC(C)[C@@H](C(=O)N[C@@H](CCNC(=O)c1cc(F)cc(F)c1)C(=O)NO)N(C)C(=O)[C@@H]1CC(F)(F)CN1C(=O)CCCOc1ccccc1 (stereo partly drawn) [Example 10, (2S)—N-[(1S)-1-[[(1S)-3-[(3,5-difluorobenzoyl)amino]-1-(hydroxycarbamoyl)propyl]carbamoyl]-2-methyl-butyl]-4,4-difluoro-N-methyl-1-(4-phenoxybutanoyl)pyrrolidine-2-carboxamide] | 0.037 µM | 0.223 µM | 8.08 µM | – |
| CCCC(=O)N(C)[C@@H](Cc1c[nH]c2ccccc12)C(=O)N(C)[C@@H](CC(C)C)C(=O)N1CCC[C@H]1C(=O)N(C)[C@H](C(=O)N[C@@H](CCNC(=O)c1cc(F)cc(F)c1)C(=O)NO)C(C)CC (stereo partly drawn) [Example 14, (2S)-1-[(2S)-2-[[(2S)-2-[butanoyl(methyl)amino]-3-(1H-indol-3-yl)propanoyl]-methyl-amino]-4-methyl-pentanoyl]-N-[(1S)-1-[[(1S)-3-[(3,5-difluorobenzoyl)amino]-1-(hydroxycarbamoyl)propyl]carbamoyl]-2-methyl-butyl]-N-methyl-pyrrolidine-2-carboxamide] (Butyryl-[NMeW][NMeL]P[NMeIle(3ξ)][Dab](Benzoyl(3,5-F2))-{NHOH}) | 0.116 µM | 0.046 µM | 61 µM | – |
| CC(=O)N1CCC[C@H]1C(=O)N[C@@H](CCC(N)=O)C(=O)N[C@@H](Cc1c[nH]c2ccccc12)C(=O)NO [Example C17, (2S)-2-[[(2S)-1-acetylpyrrolidine-2-carbonyl)amino]-N-[(1S)-2-(hydroxyamino)-1-(1H-indol-3-ylmethyl)-2-oxo-ethyl]pentanediamide, reference compound] (Ac-Pro-Gln-Trp-{NHOH}) | 110 µM | 3500 µM | > 2000 µM | – |
| CC(=O)N1CCC[C@H]1C(=O)N(C)[C@@H](CCC(N)=O)C(=O)N[C@@H](Cc1c[nH]c2ccccc12)C(=O)NO [Example C20, (2S)-2-[[(2S)-1-acetylpyrrolidine-2-carbonyl]-methyl-amino]-N-[(1S)-2-(hydroxyamino)-1-(1H-indol-3-ylmethyl)-2-oxo-ethyl]pentanediamide, reference compound] (Ac-Pro-[NMeQ]-Trp-{NHOH}) | 53 µM | 22 µM | > 2000 µM | – |

Results, then the molecule that gave them:

| IC50 [1] | IC50 [2] | IC50 [3] | IC50 [4] | Compound |
| --- | --- | --- | --- | --- |
| 0.242 µM | 0.301 µM | 31.4 µM | – | CCC(C)[C@@H](C(=O)N[C@@H](CCNC(=O)c1cc(F)cc(F)c1)C(=O)NO)N(C)C(=O)[C@@H]1CCCN1C(C)=O (stereo partly drawn) [Example 2, (2S)-1-acetyl-N-[(1S)-1-[[(1S)-3-[(3,5-difluorobenzoyl)amino]-1-(hydroxycarbamoyl)propyl]carbamoyl]-2-methyl-butyl]-N-methyl-pyrrolidine-2-carboxamide] |
| 0.081 µM | – | 6.61 µM | 0.395 µM | CCCCCC(=O)N1CCC[C@H]1C(=O)N(C)[C@H](C(=O)N[C@@H](CCNC(=O)c1cc(F)cc(F)c1)C(=O)NO)C(C)CC (stereo partly drawn) [Example 3, (2S)—N-[(1S)-1-[[(1S)-3-[(3,5-difluorobenzoyl)amino]-1-(hydroxycarbamoyl)propyl]carbamoyl]-2-methyl-butyl]-1-hexanoyl-N-methyl-pyrrolidine-2-carboxamide] |
| 0.062 µM | – | 4.42 µM | 0.235 µM | CCCC(=O)N1CCC[C@H]1C(=O)N(C)[C@H](C(=O)N[C@@H](CCNC(=O)c1cc(F)cc(F)c1)C(=O)NO)C(C)CC (stereo partly drawn) [Example 4, (2S)-1-butanoyl-N-[(1S)-1-[[(1S)-3-[(3,5-difluorobenzoyl)amino]-1-(hydroxycarbamoyl)propyl]carbamoyl]-2-methyl-butyl]-N-methyl-pyrrolidine-2-carboxamide] |
| 0.116 µM | 0.601 µM | 3.48 µM | – | CCC(C)[C@@H](C(=O)N[C@@H](CCNC(=O)c1cc(F)cc(F)c1)C(=O)NO)N(C)C(=O)[C@@H]1CCCN1C(=O)CC(C)C (stereo partly drawn) [Example 5, (2S)—N-[(1S)-1-[[(1S)-3-[(3,5-difluorobenzoyl)amino]-1-(hydroxycarbamoyl)propyl]carbamoyl]-2-methyl-butyl]-N-methyl-1-(3-methylbutanoyl)pyrrolidine-2-carboxamide] |
| 0.4 µM | – | 52.6 µM | 0.733 µM | CCCCCCCC(=O)N1CCC[C@H]1C(=O)N(C)[C@H](C(=O)N[C@@H](CCNC(=O)c1cc(F)cc(F)c1)C(=O)NO)C(C)CC (stereo partly drawn) [Example 6, (2S)—N-[(1S)-1-[[(1S)-3-[(3,5-difluorobenzoyl)amino]-1-(hydroxycarbamoyl)propyl]carbamoyl]-2-methyl-butyl]-N-methyl-1-octanoyl-pyrrolidine-2-carboxamide] |
| 0.362 µM | 0.506 µM | 40.3 µM | – | CCC(C)[C@@H](C(=O)N[C@@H](CCNC(=O)c1cc(F)cc(F)c1)C(=O)NO)N(C)C(=O)[C@@H]1CCCN1C(=O)CCCOc1ccccc1 (stereo partly drawn) [Example 9, (2S)—N-[(1S)-1-[[(1S)-3-[(3,5-difluorobenzoyl)amino]-1-(hydroxycarbamoyl)propyl]carbamoyl]-2-methyl-butyl]-N-methyl-1-(4-phenoxybutanoyl)pyrrolidine-2-carboxamide] |
| 1.15 µM | 0.339 µM | 50.4 µM | – | CCC(C)[C@@H](C(=O)N[C@@H](CCNC(=O)c1cc(F)cc(F)c1)C(=O)NO)N(C)C(=O)[C@@H]1CCCN1C(=O)CCN(C)C(C)=O (stereo partly drawn) [Example 13, (2S)-1-[3-[acetyl(methyl)amino]propanoyl]-N-[(1S)-1-[[(1S)-3-[(3,5-difluorobenzoyl)amino]-1-(hydroxycarbamoyl)propyl]carbamoyl]-2-methyl-butyl]-N-methyl-pyrrolidine-2-carboxamide] |
